Source: patent publication US20230084927A1, “GLUCOSE UPTAKE INHIBITORS AND USES THEREOF” (METABOMED LTD., priority 2019, published 2023)

Legend:
[1] = test system: SDH-KO-HRAS cells (SDHB-deficient); assay: Cellular / differential toxicity assay (CellTiter-Glo, 3 days); assay type: cell-based, murine; settings: Mus musculus, 72 h, toxicity, SDH-KO cells, 3 days, CellTiter-Glo; read-out: EC50 (uM) SDH-KO-HTAS-C17
Experimental: (§1) Identification of compounds that target specifically SDH-deficient cells was done by screening a library of small-molecule by using a differential toxicity screen with SDHB-proficient vs. SDHB-deficient cells (the […] cells were described in Cardaci 2015).
(§2) Cells Used for the Differential Assays: SDH-WT; SDH-KO-HRAS
(§3) Cell Culture Conditions: • Medium: DMEM-F12 medium+1 mM Glutamine+3% FBS • Plates: 96 well plate—Black, clear flat bottom • Incubation time: 3 days • Compound concentration: 10 point dilution starting from 10 uM to 0.0065 uM or a lower range when needed. • Viability assay at the end of incubation: Celltiter-Glo (CTG) from Promega.
(§4) Protocol: • Day 1: Plate cells in 96 well plate together with the appropriate concentration of compound.
(§5) Incubate for 3 days at 37° C. in 5% CO2 tissue culture incubator. • Day 4: Check viability of cells by adding CTG reagent and read luminescence in plate reader
(§6) SDH-WT and SDH-KO cells were grown in DMEM F12 supplemented with 1 mM Glutamine+3% FBS were treated with different concentrations of the indicated compounds in FIG. 11. Cell viability was determined 72 hours later by CellTiter Glue reagent (Promega), the luminescence was measured with ClarioStar reader (BMG) and the EC50s were calculated by Prism.
as §6, with “compounds.” for “compounds in FIG. 11.”
(§7) The cells were grown in DMEM F12 supplemented with 1 mM Glutamine+3% FBS were treated with different concentrations of the indicated compounds. Cell viability was determined 72 hours later by CellTiter Glue reagent (Promega), the luminescence was measured with ClarioStar reader (BMG) and the EC50s were calculated by Prism. Murine SDHB-WT/KO, HRAS transformed isogenic pair (FIG. 12A); UOK269, Human Tumor-derived SDHB-deficient RCC in their WT counterpart with re-expression of SDHB (FIG. 12B); and ACHN, RCC cells, and their SDHB-KO (SDHB CRISPRed out) isogenic cells (FIG. 12C).

[2] = test system: SDH-WT cells; assay: as above; assay type: cell-based, murine; settings: Mus musculus, 72 h, toxicity, SDH-WT cells, 3 days, CellTiter-Glo; read-out: EC50 (uM) SDH-WT
Experimental: as §1, §2, §3, §4, §5, §6
as §6, with “compounds.” for “compounds in FIG. 11.”
as §7

SMILES	EC50 [1]	EC50 [2]
COc1ccc(CCN(C)c2ncnc3c2sc2nc4c(cc23)COC(C)(C)C4)cc1F [Compound 100]	3 to 10 µM	> 10 µM
CCOC1CCc2nc3sc4c(NCCc5ccc(OC)c(F)c5)ncnc4c3cc2C1 (centres unmarked) [Compound 101]	> 10 µM	> 10 µM
COc1cc(CCNc2ncnc3c2sc2nc4c(cc23)COC(C)(C)C4)cc(OC)c1 [Compound 102]	3 to 10 µM	> 10 µM
COc1cccc(CCNc2ncnc3c2sc2nc4c(cc23)COC(C)(C)C4)c1OC [Compound 103]	> 10 µM	> 10 µM
COc1ccc(CCNc2ncnc3c2sc2nc(C=C(C)C)c(CCl)cc23)cc1F [Compound 104]	1 to 3 µM	3 to 10 µM
COc1ccc(C2CCN(c3ncnc4c3sc3nc5c(cc34)COC(C)(C)C5)C2)cc1F (centres unmarked) [Compound 105]	3 to 10 µM	3 to 10 µM
COc1ccc(CCNc2ncnc3c2sc2nc4c(cc23)CN(C)CC4)cc1F [Compound 106, N-(3-Fluoro-4-methoxyphenethyl)-9-methyl-7,8,9,10-tetrahydropyrimido[4′,5′:4,5]-thieno[2,3-b][1,6]naphthyridin-4-amine]	3 to 10 µM	3 to 10 µM
COc1ccc(CCNc2ncnc3c2sc2nc4c(cc23)CCC4)cc1F [Compound 108, N-(3-Fluoro-4-methoxyphenethyl)-8,9-dihydro-7H-cyclopenta[5′,6′]pyrido-[3′,2′:4,5]thieno[3,2-d]pyrimidin-4-amine]	> 10 µM	1 to 3 µM
COc1ccc(CCNc2ncnc3c2sc2nc4c(cc23)CCCC4)cc1F [Compound 109, N-(3-Fluoro-4-methoxyphenethyl)-7,8,9,10-tetrahydropyrimido[4′,5′:4,5]-thieno[2,3-b]quinolin-4-amine]	> 10 µM	> 10 µM
COc1ccc(CCNc2ncnc3c2sc2ncccc23)cc1F [Compound 110]	1 to 3 µM	> 10 µM
CC1(C)Cc2nc3sc4c(NCCC5CCCCO5)ncnc4c3cc2CO1 (centres unmarked) [Compound 112]	3 to 10 µM	> 10 µM
CC1(C)Cc2nc3sc4c(NCCc5cccc(C(=O)O)c5)ncnc4c3cc2CO1 [Compound 113]	3 to 10 µM	< 1 µM
CCCOc1ccc(CCNc2ncnc3c2sc2nc4c(cc23)COC(C)(C)C4)cc1OC [Compound 115]	3 to 10 µM	1 to 3 µM
CC1(C)Cc2nc3sc4c(NCCc5ccc6[nH]ccc6c5)ncnc4c3cc2CO1 [Compound 116]	1 to 3 µM	3 to 10 µM
COc1cccc(CCNc2ncnc3c2sc2nc4c(cc23)COC(C)(C)C4)c1 [Compound 117]	3 to 10 µM	> 10 µM
CC1(C)Cc2nc3sc4c(NCCc5ccc(F)c(F)c5)ncnc4c3cc2CO1 [Compound 120]	> 10 µM	> 10 µM
COc1cc(CCNc2ncnc3c2sc2nc4c(cc23)COC(C)(C)C4)ccc1F [Compound 121]	3 to 10 µM	> 10 µM
COc1ccc(CCNc2ncnc3c2sc2nc4c(cc23)COC(C)(C)C4)cc1F [Compound 122]	< 1 µM	> 10 µM
CC1(C)Cc2nc3sc4c(NCCc5cncnc5)ncnc4c3cc2CO1 [Compound 123]	> 10 µM	> 10 µM
CC1(C)Cc2nc3sc4c(NCCc5cccnc5)ncnc4c3cc2CO1 [Compound 124]	> 10 µM	> 10 µM
COc1ccc(CCNc2ncnc3c4c(sc23)=NC2CC(C)(C)OCC2C=4)c(OC)c1 (centres unmarked) [Compound 125]	1 to 3 µM	> 10 µM
COc1ccc(CCNc2ncnc3c2sc2ncccc23)cc1OC [Compound 126]	1 to 3 µM	3 to 10 µM
CC1(C)Cc2nc3sc4c(NCCc5ccncc5)ncnc4c3cc2CO1 [Compound 127]	> 10 µM	> 10 µM
COc1ccccc1CCNc1ncnc2c1sc1nc3c(cc12)COC(C)(C)C3 [Compound 128]	3 to 10 µM	3 to 10 µM
COc1ccc(CCNc2ncnc3c2sc2nc4c(cc23)COC(C)(C)C4)cc1 [Compound 129]	< 1 µM	> 10 µM
COC(=O)c1ccc(CCNc2ncnc3c2sc2nc4c(cc23)COC(C)(C)C4)cc1 [Compound 130]	> 10 µM	> 10 µM
CC1(C)Cc2nc3sc4c(NCCc5ccc6c(c5)OCCO6)ncnc4c3cc2CO1 [Compound 131]	> 10 µM	> 10 µM
COc1ccc(Nc2ncnc3c2sc2nc4c(cc23)COC(C)(C)C4)cc1OC [Compound 132]	> 10 µM	> 10 µM

SMILES	EC50 [1]	EC50 [2]
CC1(C)Cc2nc3sc4c(NCCc5ccccn5)ncnc4c3cc2CO1 [Compound 133]	3 to 10 µM	> 10 µM
CC(C)Nc1ncnc2c1sc1nc3c(cc12)COC(C)(C)C3 [Compound 134]	> 10 µM	> 10 µM
CC1(C)Cc2nc3sc4c(NCc5ccccc5)ncnc4c3cc2CO1 [Compound 135]	> 10 µM	> 10 µM
CC1(C)Cc2nc3sc4c(N5CCNCC5)ncnc4c3cc2CO1 [Compound 136]	> 10 µM	> 10 µM
CC1(C)Cc2nc3sc4c(N5CCOCC5)ncnc4c3cc2CO1 [Compound 137]	> 10 µM	> 10 µM
CC1(C)Cc2nc3sc4c(N5CCCCC5)ncnc4c3cc2CO1 [Compound 138]	> 10 µM	> 10 µM
CC1(C)Cc2nc3sc4c(NCCc5ccc(O)c(F)c5)ncnc4c3cc2CO1 [Compound 140]	1 to 3 µM	3 to 10 µM
CC1(C)Cc2nc3sc4c(NCCc5ccc(NC(N)=O)cc5)ncnc4c3cc2CO1 [Compound 141]	< 1 µM	> 10 µM
CNC(=O)c1ccc(CCNc2ncnc3c2sc2nc4c(cc23)COC(C)(C)C4)cc1 [Compound 142]	< 1 µM	3 to 10 µM
CC1(C)Cc2nc3sc4c(NCCc5ccc(OC(N)=O)cc5)ncnc4c3cc2CO1 [Compound 143]	< 1 µM	> 10 µM
CC1(C)Cc2nc3sc4c(NCCc5ccc(C(N)=O)cc5)ncnc4c3cc2CO1 [Compound 144]	< 1 µM	> 10 µM
CN(c1ccc(CCNc2ncnc3c2sc2nc4c(cc23)COC(C)(C)C4)cc1)S(C)(=O)=O [Compound 146]	3 to 10 µM	> 10 µM
CC1(C)Cc2nc3sc4c(NCCc5ccc(-c6ncco6)cc5)ncnc4c3cc2CO1 [Compound 147]	< 1 µM	3 to 10 µM
CC1(C)Cc2nc3sc4c(NCCc5ccc(-c6cncs6)cc5)ncnc4c3cc2CO1 [Compound 148]	< 1 µM	> 10 µM
CC1(C)Cc2nc3sc4c(NCCc5ccc(-c6cnco6)cc5)ncnc4c3cc2CO1 [Compound 149]	> 10 µM	> 10 µM
CN(C)C(=O)c1ccc(CCNc2ncnc3c2sc2nc4c(cc23)COC(C)(C)C4)cc1 [Compound 150]	1 to 3 µM	> 10 µM
CC1(C)Cc2nc3sc4c(NCCc5ccc(N)cc5)ncnc4c3cc2CO1 [Compound 151]	< 1 µM	3 to 10 µM
CC1(C)Cc2nc3sc4c(NCCc5ccc(NS(C)(=O)=O)cc5)ncnc4c3cc2CO1 [Compound 152]	3 to 10 µM	3 to 10 µM
COc1ccc(CCOc2ncnc3c2sc2nc4c(cc23)COC(C)(C)C4)cc1F [Compound 153]	> 10 µM	> 10 µM
CC1(C)Cc2nc3sc4c(NCCc5ccc(O)cc5)ncnc4c3cc2CO1 [Compound 154]	< 1 µM	3 to 10 µM
CC1(C)Cc2nc3sc4c(NCCc5ccc(N6CCCC6=O)cc5)ncnc4c3cc2CO1 [Compound 156]	1 to 3 µM	> 10 µM
CC1(C)Cc2nc3sc4c(NCCc5ccc(OS(C)(=O)=O)cc5)ncnc4c3cc2CO1 [Compound 157]	> 10 µM	> 10 µM
CC(=O)N(C)c1ccc(CCNc2ncnc3c2sc2nc4c(cc23)COC(C)(C)C4)cc1 [Compound 158]	< 1 µM	> 10 µM
CC1(C)Cc2nc3sc4c(NCCc5ccc(C(=O)O)cc5)ncnc4c3cc2CO1 [Compound 159]	> 10 µM	> 10 µM
COc1ccc(CCN(C(C)=O)c2ncnc3c2sc2nc4c(cc23)COC(C)(C)C4)cc1F [Compound 160]	> 10 µM	> 10 µM
COc1ccc(CCNc2ncnc3c2sc2nc4c(cc23)COC(C)(C)C4)cc1C(F)(F)F [Compound 161]	3 to 10 µM	3 to 10 µM
COc1cccc(OC)c1CCNc1ncnc2c1sc1nc3c(cc12)COC(C)(C)C3 [Compound 162]	< 1 µM	< 1 µM
